The values below come from PubChem BioAssay (NCI).

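48-hour exposure; five concentrations; linearly interpolated endpoints. The concentration for full growth arrest is given as TGI.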

In this experiment the test system is HS 578T breast. Put plainly: NCI-60 cell line screen, 48 h.

Compound `N=C(N)c1ccc(N=Nc2c(O)ccc3c2[nH]c2ccccc23)cc1` returned a TGI of over 100 µM.
